From the supplement of paper PMC13380429

What was measured:
Conditions in all cases: 72 h
[1] = test system: Caco-2; assay: cell viability relative to DMSO; higher = less toxic
[2] = test system: Calu-3; assay: as above
[3] = test system: HepG2; assay: as above
[4] = test system: U2OS; assay: as above
[5] = test system: Caco-2; assay: relative viability EC50 (midpoint between 100% and the lowest measured viability); higher = less toxic
[6] = test system: Calu-3; assay: as above
[7] = test system: HepG2; assay: as above
[8] = test system: U2OS; assay: as above
[9] = test system: Caco-2; assay: drug sensitivity score (DSS) for viability; higher = more toxic; extreme values may be limits of the assay
[10] = test system: Calu-3; assay: as above
[11] = test system: HepG2; assay: as above
[12] = test system: U2OS; assay: as above
[13] = test system: Vero E6; assay: cell viability relative to DMSO; higher = less toxic
[14] = test system: Vero E6; assay: relative viability EC50 (midpoint between 100% and the lowest measured viability); higher = less toxic
[15] = test system: Vero E6; assay: drug sensitivity score (DSS) for viability; higher = more toxic; extreme values may be limits of the assay

Structure (SMILES) | cell viability ([1]; 1 nM) [%] | cell viability ([1]; 10 nM) [%] | cell viability ([1]; 100 nM) [%] | cell viability ([1]; 1000 nM) [%] | cell viability ([1]; 10000 nM) [%] | cell viability ([2]; 1 nM) [%] | cell viability ([2]; 10 nM) [%] | cell viability ([2]; 100 nM) [%] | cell viability ([2]; 1000 nM) [%] | cell viability ([2]; 10000 nM) [%] | cell viability ([3]; 1 nM) [%] | cell viability ([3]; 10 nM) [%] | cell viability ([3]; 100 nM) [%] | cell viability ([3]; 1000 nM) [%] | cell viability ([3]; 10000 nM) [%] | cell viability ([4]; 1 nM) [%] | cell viability ([4]; 10 nM) [%] | cell viability ([4]; 100 nM) [%] | cell viability ([4]; 1000 nM) [%] | cell viability ([4]; 10000 nM) [%] | relative viability EC50 [5] [µM] | relative viability EC50 [6] [µM] | relative viability EC50 [7] [µM] | relative viability EC50 [8] [µM] | drug sensitivity score [9] | drug sensitivity score [10] | drug sensitivity score [11] | drug sensitivity score [12] | cell viability ([13]; 1 nM) [%] | cell viability ([13]; 10 nM) [%] | cell viability ([13]; 100 nM) [%] | cell viability ([13]; 1000 nM) [%] | cell viability ([13]; 10000 nM) [%] | relative viability EC50 [14] [µM] | drug sensitivity score [15]
C[C@@H](CN1CCC(n2c(=O)[nH]c3cc(Cl)ccc32)CC1)NC(=O)c1ccc2ccccc2c1 | 93.8 | 105 | 101 | 97.4 | 79.5 | 102 | 99.7 | 96.2 | 94.2 | 82.1 | 99.9 | 102 | 85.6 | 94.1 | 82.9 | 106 | 102 | 100 | 98.1 | 91.1 | > 10 | > 10 | > 10 | > 10 | 1 | 0.7 | 0.9 | 0 |  |  |  |  |  |  | 
C[C@H](NC(=O)c1sccc1OCc1ccc(Cl)cc1)c1ccccc1 | 97.9 | 103 | 104 | 97 | 67.7 | 102 | 96 | 99.6 | 107 | 98.1 | 104 | 108 | 105 | 103 | 75.8 | 92.3 | 103 | 98.7 | 99.9 | 88.6 |  | > 10 | > 10 | > 10 | 1.9 | 0 | 0.7 | 0 | 113 | 107 | 108 | 100 | 96.8 | > 10 | 0
CC(=O)Nc1ccc(NC(=S)NC(=O)c2ccc(C(C)(C)C)cc2)cc1 [tenovin-1] | 94.7 | 91.4 | 106 | 100 | 88.7 | 108 | 95.1 | 95.8 | 90.9 | 77.2 | 113 | 89.6 | 104 | 56.8 | 42.4 | 95.6 | 96.8 | 96.2 | 103 | 98.3 | > 10 | > 10 | 0.65 | > 10 | 0 | 1.3 | 8.2 | 0 | 99.9 | 98.8 | 105 | 67.8 | 61.7 |  | 5.6
O=C1CN(/N=C/c2ccc(-c3ccc([N+](=O)[O-])cc3)o2)C(=O)N1 [dantrolene] | 110 | 97.1 | 91.7 | 97.8 | 89.7 | 102 | 95 | 106 | 102 | 112 | 102 | 101 | 95.6 | 101 | 107 | 96.8 | 101 | 96.1 | 103 | 95.6 | > 10 | > 10 | > 10 | > 10 | 0 | 0 | 0 | 0 |  |  |  |  |  |  | 
